Reference: US20240307325A1, “COMPOUNDS, COMPOSITIONS, AND METHODS FOR TREATING OR AMELIORATING NONALCOHOLIC FATTY LIVER DISEASE AND RELATED DISEASES OR DISORDERS” (Thomas Jefferson University, priority 2021, published 2024)

Legend:
LNCaP cells = assay: DHT-induced lipid droplet formation and accumulation in LNCaP cells (confocal, HCS-LipidTox stain); assay type: cell-based; details: 72 h 1 nM DHT, compound 10 uM for the final 16 hours
Protocol: FIGS. 4A-4B illustrate the finding that Sigma1 (σ1) knockdown by transduction of SIGMAR1 targeted shRNA using a lentiviral vector abrogates lipid droplet (LD) accumulation, in accordance with some embodiments. FIG. 4A: Confocal micrographs of LNCaP cells treated with 72 hours (72 h) with dihydrotestosterone (DHT) to induce the formation and accumulation of LDs. Non-specific Control shRNA was compared to SIGMAR1 transcript selective shRNAs in lentiviral vectors. σ1 shR #4=MISSION/SigmaAldrich clone TRCN0000061010: σ1 shR #5=MISSION/SigmaAldrich clone TRCN0000061008. White boxes indicate areas magnified and shown immediately below. Note nearly complete elimination of LDs. FIG. 4B: Immunoblot confirming knockdown of Sigma1 by lentiviral Sigma1 (σ1) shRNAs. LDs are stained with HCS-LipidTox fluorescent stain in red. Blue DAPI stained nuclei.
FIG. 5 illustrates the finding that pharmacological Sigma1 modulator/inhibitor 1-(4-Iodophenyl)-3-(2-adamantyl)guanidine (IPAG) eliminates lipid droplets (LDs), in accordance with some embodiments. Confocal micrographs of LNCaP cells treated with 72 hours (72 h) with 1 nM dihydrotestosterone (DHT) to induce the formation and accumulation of LDs. In the far right panel, the LNCaP cells were treated with a prototypic Sigma1 selective small molecule compound, IPAG (10 uM), for the final 16 hours of the 72 h DHT treatment period. […]

lipid droplets = assay: Oleic acid, cholesterol and glucose induced lipid droplets; assay type: cell-based; details: by lipophagy
From the text: (§1) Refer to FIGS. 5 and 6A-6C, pharmacological inhibition of Sigma1 phenocopy certain aspects of Sigma1 knockdown. […] The small molecule inhibitor IPAG also eliminate oleic acid, cholesterol, and glucose induced lipid droplets by lipophagy (FIG. 5).

liver = details: even at doses that exceed the concentrations proposed herein; cited from earlier work
mouse = assay: Tumor xenograft experiments with daily oral dosing: tolerability; assay type: in vivo; details: daily oral dosing extended beyond 4 weeks
IL-17 = assay: Pro-inflammatory cytokine levels in HT-29 cells: IL-17; assay type: cell-based, human
From the text: (§2) The fibrosis associated pro-inflammatory cytokines include soluble IL-6, TNFα, and IL-17, which are contributors to the progression of NAFLD to NASH with fibrosis.

Sigma1 = Sigma1 (Homo sapiens, UniProt Q99720); details: read-out: Ki (binds Sigma1)
Sequence of Sigma1 (Q99720 whole entry): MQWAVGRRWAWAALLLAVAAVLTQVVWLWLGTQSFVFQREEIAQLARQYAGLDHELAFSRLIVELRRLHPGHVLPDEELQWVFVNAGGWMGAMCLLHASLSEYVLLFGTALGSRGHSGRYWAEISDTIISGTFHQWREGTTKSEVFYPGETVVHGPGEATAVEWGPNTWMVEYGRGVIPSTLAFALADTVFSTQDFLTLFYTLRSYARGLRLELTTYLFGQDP

CEREP Safety 44 panel = CEREP Safety 44 panel screen
HFD fed mice = assay: High fat diet-induced hepatic steatosis and whitening of brown adipose tissue in mice; assay type: in vivo; details: versus vehicle, H&E staining
From the text: FIG. 6A illustrate certain aspects of the study design. […] FIG. 6B show H&E staining images of liver from mice in FIG. 6A. […] Representative images from H&E-stained BAT of mice after an 8-week HFD. Images taken at 14×, scalebar=200 um.
as §1

Oral bioavailability = details: in vivo
TNFα = assay: Pro-inflammatory cytokine levels in HT-29 cells: TNFα; assay type: cell-based, human
From the text: as §2

SMILES	lipid droplets (LDs) (LNCaP cells)	oleic acid, cholesterol, and glucose induced lipid droplets (lipid droplets)	liver toxicity (liver)	changes in mouse behavior (mouse)	changes in mouse body weight (mouse)	level of IL-17 (IL-17)	Ki (Sigma1)	off-target liabilities (CEREP Safety 44 panel)	level of whitening of brown adipose tissue (HFD fed mice; HFD fed mice (8-week HFD), oral)	level of liver fat (HFD fed mice; HFD fed mice, oral (PO 3 days per week))	oral bioavailability (Oral bioavailability)	level of TNFα (TNFα)
N=C(Nc1ccc(I)cc1)NC1C2CC3CC(C2)CC1C3 (stereo not drawn) [IPAG, 1-(4-Iodophenyl)-3-(2-adamantyl)guanidine]	eliminates	eliminate										
N=C(NCCCOc1ccc(F)cc1)Nc1ccc(Cl)cc1 [CT-189, 1-(3-(4-fluorophenoxy)propyl)-3-(4-chlorophenyl)guanidine]			does not induce liver toxicity	no detectable changes	no detectable changes	suppresses levels	38 nM	limited off-target liabilities	significantly reduced	significantly reduced	orally bioavailable	suppresses levels
